These are literature values, as cited in patent publication US20150315247A1, “High-affinity peptide-based anticancer vaccination to overcome tumor resistance to immunostimulatory antibodies and to identify TCRs that can be used successfully in adoptive T cell therapy” (priority 2014, published 2015).

pIC50: −log10 of the molar value.

The pIC50 is the negative decadic logarithm of the IC50, by convention in mol/L.

The series concerns the target T1, H-2K^b (mouse MHC) (Mus musculus, UniProt P01901).
T1 sequence (P01901 22-369): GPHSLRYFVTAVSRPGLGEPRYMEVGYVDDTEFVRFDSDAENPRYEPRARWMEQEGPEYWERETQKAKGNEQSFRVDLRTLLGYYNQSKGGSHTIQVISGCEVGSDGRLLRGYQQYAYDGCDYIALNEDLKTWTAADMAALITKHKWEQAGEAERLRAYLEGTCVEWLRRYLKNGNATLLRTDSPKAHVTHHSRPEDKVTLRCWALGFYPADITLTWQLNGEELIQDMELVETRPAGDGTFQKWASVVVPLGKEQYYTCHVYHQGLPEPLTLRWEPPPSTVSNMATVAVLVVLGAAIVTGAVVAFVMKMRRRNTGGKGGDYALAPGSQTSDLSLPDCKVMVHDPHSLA
T1 sequence (P01887 21-119 partner): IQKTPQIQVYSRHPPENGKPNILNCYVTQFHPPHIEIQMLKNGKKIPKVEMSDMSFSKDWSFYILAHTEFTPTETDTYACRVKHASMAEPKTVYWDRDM
The following applies: SIINFEKL peptide binding to H-2K^b; read-out: peptide-H-2K^b affinity IC50.

Turning to SIINFEKL [SIINFEKL peptide], the negative-log IC50 (pIC50) is 9.05.
